One experiment has as its system TNF-α. Briefly: TNF-α ELISA in blood of mice with carrageenan-induced inflammation. It counts as in vivo, ICR mice. To be noted: mouse blood 24 h after carrageenan, indomethacin 5 mg/kg oral. The procedure: Tests were performed on male ICR mice, with six individuals in each group. A peptide sample was dissolved in sterile saline and administered intravenously at doses of 0.1 and 1.0 mg/kg. Control animals received an equivalent volume of sterile saline. Indomethacin at a dose of 5 mg/kg was used as a positive control and administered orally to animals. Each mouse received 20 μL of a 1% solution of carrageenan in the hind paw pad after 30 min in the case of saline and tested peptide and after 60 min in the case of indomethacin. Then, the resulting edema was measured at several time points (1, 3, 5, and 24 h) using a plethysmometer (Ugo Basile, Gemonio (VA), Italy).
Animals were terminally anaesthetized with sodium pentobarbital ([…] i.p., Euthatal, Merial Animal Health, Essex, UK) 24 h after carrageenan injection. Then the thoracic cavity was opened and blood was collected in tubes with the ethylenediaminetetraacetic acid (EDTA) directly from the right atrium of the heart. The whole blood was centrifuged at 2.5 × 10^3× g for 10 min to remove cells; the blood serum was then aliquoted and stored at −20 °C. These samples were analyzed for TNF-α in the enzyme-linked immunosorbent assay (ELISA) using a diagnostic kit according to the manufacturer’s protocol (CUSABIO BIOTECH Co., Ltd., Houston, TX, USA).

A further experiment concerns Kv1.3. Also noted: key to IC50 Kv1.3 (class symbol): -: no or weak activity. To be noted: cited from earlier work.
The next experiment concerns Kv1.1. Conditions: cited from earlier work. From the text: (§1) Kalicludines block Kv1.2 in µM concentratio ...
In the next experiment the test system is Kv1.2. On the set-up: key to IC50 Kv1.2 (class symbol): -: no or weak activity. To be noted: cited from earlier work. The text has this: Table 1 Kunitz-type voltage-gated potassium channel toxins from animal venoms. | column: IC50 (nM) / Kv1.2
The next experiment concerns trypsin. Conditions: cited from earlier work.
A further experiment relates to Kv1.6. On the set-up: key to IC50 Kv1.6 (class symbol): -: no or weak activity. Conditions: cited from earlier work. The text has this:
Table 1 Kunitz-type voltage-gated potassium channel toxins from animal venoms. | column: IC50 (nM) / Kv1.6

In a further experiment the test system is Shaker IR. Also noted: key to IC50 Shaker IR (class symbol): -: no or weak activity. Conditions: cited from earlier work.
In experiment [1] the test system is macrophages treated with LPS. Conditions: ref [68]; cited from earlier work. The text has this: Kv1.3 channels have gained a prominent role for their possibility to control neuroinflammatory and autoimmune diseases. Inflammation involves several processes including the activation of inflammatory cells, the secretion of pro-inflammatory cytokines and the release of various inflammatory mediators, leading to symptoms of inflammation such as redness, swelling, fever and pain [67].

Another experiment has as its system crabs. Conditions: ref [18]; cited from earlier work.
The test system of experiment [2] is Kv1.1, Kv1.2, and Kv1.6 channels in rat synaptosomal membranes. Conditions: ref [18], cited from earlier work; for IC50: 125I α-DTX dendrotoxin binding to synaptosomal membranes.
Source text: as §1

Like-named read-outs stand apart in the source and are kept apart here. Bridge positions count the residues as written; N and C are the ends. Ends that are not written are not given here.

Take `COc1ccc2c(c1)c(CC(=O)O)c(C)n2C(=O)c1ccc(Cl)cc1` [indomethacin]: the “effect on TNF-α synthesis” value in the experiment with TNF-α was “reduced the synthesis of TNF-α”.
A word on the IC50: it is the concentration at which inhibition is half-maximal. In the case of “LmKTT-1a: LmKTT-1a (P0DJ46) from scorpion Lychas mucronatus”, the IC50 was 1580 ± 73 nM in the experiment on Kv1.3 (ref [50]), over 1000 nM in the experiment with Kv1.1 (ref [50]) and over 1000 nM with Kv1.2 (ref [50]).
On to “AsKC1: AsKC1 (Q9TWG0) from A. sulcata (INKDCLLPMDVGRCRASHPRYYYNSSSKRCEKFIYGGCRGNANNFHTLEECEKVCGVR; disulfide 14-38, 30-51, 5-55 (inferred); UniProt Q9TWG0 1-58, looked up)”, for which the IC50 in the experiment on Kv1.2 (ref [16]) was 2800 nM.
For “APEKTx1: APEKTx1 (P61541) from the sea anemone A. elegantissima (GTTCYCGKTIGIYWFGTKTCPSNRGYTGSCGYFLGICCYPVD; UniProt P61541 1-42, looked up)”, the “trypsin inhibition (in words)” value in the experiment on trypsin (ref [17]) is listed as “effectively inhibiting trypsin”. Also, the “IC50 Kv1.6 (class symbol)” value in the experiment on Kv1.6 (ref [17]) was “-”. In the experiment with Kv1.3 (ref [17]), the “IC50 Kv1.3 (class symbol)” value is “-”. In the experiment on Kv1.1 (ref [17]), the IC50 was 0.9 nM and the “Kv1.1 block (in words)” value was “selectively blocks Kv1.1 channels”. Moreover, in the experiment on Shaker IR (ref [17]), the “IC50 Shaker IR (class symbol)” value is reported as “-”. In addition, the “IC50 Kv1.2 (class symbol)” value with Kv1.2 (ref [17]) is recorded as “-”.
For “AsKC2: AsKC2 (Q9TWF9) from A. sulcata (INKDCLLPMDVGRCRARHPRYYYNSSSRRCEKFIYGGCRGNANNFITKKECEKVCGVR; disulfide 14-38, 30-51, 5-55 (inferred); UniProt Q9TWF9 1-58, looked up)”, in the experiment with Kv1.2 (ref [16]), the IC50 was 1100 nM.
Consider “DTX-I: DTX1 (P00979) from snake Dendroaspis polylepis (QPLRKLCILHRNPGRCYQKIPAFYYNQKKKQCEGFTWSGCGGNSNRFKTIEECRRTCIRK; UniProt P00979 1-60, looked up)”, for which the IC50 in the experiment on Kv1.1 (ref [48]) is 3.1 nM; with Kv1.2 (ref [48]), 0.13 nM.
Consider “AsKC3: AsKC3 (Q9TWF8) from A. sulcata (INGDCELPKVVGRCRARFPRYYYNLSSRRCEKFIYGGCGGNANNFHTLEECEKVCGVRS; disulfide 14-38, 30-51, 5-55 (inferred); UniProt Q9TWF8 1-59, looked up)”, for which the IC50 with Kv1.2 (ref [16]) is 1300 nM.
In the case of “ShPI-1: ShPI-1 (P31713) from S. helianthus (SICSEPKKVGRCKGYFPRFYFDSETGKCTPFIYGGCGGNGNNFETLHQCRAICRA; UniProt P31713 1-55, looked up)”, the values for the half-inhibitory concentration (IC50) in the experiment with Kv1.6 (ref [19]), in the experiment with Kv1.1 (ref [19]) and with Kv1.2 (ref [19]) were 9 ± 2 nM, 117 ± 15 nM and 9 ± 2 nM, respectively. Besides, the “IC50 Kv1.3 (class symbol)” value with Kv1.3 (ref [19]) was “-”. Moreover, the “IC50 Shaker IR (class symbol)” value with Shaker IR (ref [19]) was “-”.
Turning to “DTX-δ: DTX-δ (P00982) from Dendroaspis angusticeps (AAKYCKLPVRYGPCKKKIPSFYYKWKAKQCLPFDYSGCGGNANRFKTIEECRRTCVG; UniProt P00982 1-57, looked up)”, the concentration for half-maximal inhibition (IC50) in the experiment with Kv1.1 (ref [49]) was 0.01 nM; in the experiment with Shaker IR (ref [49]), 1000 nM.

B1: bikunin: a human Kunitz-type peptide (protein, UniProt P02760 206-352, looked up)
Inter-alpha-trypsin inhibitor …: AVLPQEEEGSGGGQLVTEVTKKEDSCQLGYSAGPCMGMTSRYFYNGTSMACETFQYGGCMGNGNNFVTEKECLQTCRTVAACNLPIVRGPCRAFIQLWAFDAVKGKCVLFPYGGCQGNGNKFYSEKECREYCGVPGDGDEELLRFSN
modifications: Inter-alpha-trypsin inhibitor light chain
notes: a human Kunitz-type peptide
As to B1, the “effect on production of mediators” value in experiment [1] was “inhibits the production of thromboxane B2, TNF-α, and IL-8”.

B2: SHTXIII: SHTXIII (B1B5I8) from S. haddoni (protein, UniProt B1B5I8 20-81, looked up)
KappaPI-stichotoxin-Shd2a: TEEMPALCHLQPDVPKCRGYFPRYYYNPEVGKCEQFIYGGCGGNKNNFVSFEACRATCIIPL
Turning to B2, in the experiment with trypsin (ref [18]), the “trypsin inhibition (in words)” value was “inhibited trypsin”. In addition, the “paralysis of crabs (in words)” value in the experiment on crabs is listed as “paralyzes crabs”. The IC50 is 270 nM in experiment [2] (column Kv1.1, read-out: IC50 Kv1.1 (125I α-DTX binding)); 270 nM in [2] (column Kv1.2, read-out: IC50 Kv1.2 (125I α-DTX binding)); 270 nM in experiment [2] (column Kv1.6, read-out: IC50 Kv1.6 (125I α-DTX binding)). The “competition with the binding of α-DTX (in words)” value in experiment [2] (rat synaptosomal membranes, at the level of Kv1.1, Kv1.2, and Kv1.6) was “competed with the binding of α-DTX”.

Source of the values: PMC7694175, “Kunitz-Type Peptides from the Sea Anemone Heteractis crispa Demonstrate Potassium Channel Blocking and Anti-Inflammatory Activities” (Biomedicines, 2020).
